Experimental findings from patent US20250051375A1, “ANTI-HIV COMPOUNDS” (Gilead Sciences, Inc., priority 2023, published 2025) are described below.

Converted amounts (≈) assume the structure as drawn.

Data set [1] is described as follows: Intestinal S9 Assay (human GI S9). The data set is classed as in vitro ADME. As to conditions: human, 1.0 mg/mL S9 protein, TRIS pH 7.4, read-out: Human GI S9 T½. Put shortly:
(§1)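 Pooled dog or human intestinal S9 at 1.0 mg/mL protein in TRIS buffer pH 7.4 with ZnCl2 and MgCl2; compound at 2 μM, sampled 0–120 min and quenched. Remaining parent by LC-MS peak area ratio; half-life from first-order exponential decline fit.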

A further data set is described as follows: Solubility in FaSSIF. Particulars: 23 °C, pH 6.5, fassif, thermodynamic from solid. Put shortly: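 Concentration measured by HPLC-UV after solid compound was dosed at 5 mg/mL into pH 6.5 fasted-state simulated intestinal fluid containing taurocholate and lecithin (4:1 molar) and vortexed.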
A further data set in a line: PBS Stability Assay. The class given is physicochemical. Particulars: buffer, pH 7.4, 2 μM, phosphate buffered saline pH 7.4; read-out: PBS T½. Put shortly: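 Test compound at 2 μM final was incubated in PBS, pH 7.4, and sampled at 0, 10, 20, 30, 60 and 120 min into acetonitrile/1% formic acid quench with labetalol internal standard. Remaining compound was quantified by LC-MS peak-area ratio, and half-life came from a first-order exponential fit.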

Data set [2] has as its target bovine intestinal alkaline phosphatase (Bos taurus (Bovine), UniProt P19111). Nature of the data set: BiALP: conversion by bovine intestinal alkaline phosphatase. The data set is classed as in vitro ADME. Particulars: 2 μM substrate, 100 ng/mL iALP, Tris pH 7.8, 37° C., 60 minutes. Put shortly:
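Compounds at 2 μM final were incubated 60 min at 37° C in 0.1 M Tris-HCl pH 7.8 with 1 mM MgCl2 and 1 mM ZnCl2, with or without 100 ng/mL iALP (0.01 units/mL). Samples were quenched with acetonitrile/formic acid containing labetalol. Conversion was quantified by LC-MS peak area ratios against a 2 μM product standard.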

The next data set concerns HIV-1 IIIB strain. Nature of the data set: MT-4 HIV Wild Type Virus Infection Assay (IIIB Virus). The class given is cell-based. As to conditions: Human immunodeficiency virus 1, IIIB, MT4, 120 h, MT-4 cells acutely infected with HIV-1 IIIB, 5 day incubation, Cell-titer glo. Put shortly:
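MT-4 cells at 2×10^6 cells/ml in RPMI/10% FBS were acutely infected with HIV-1 IIIB for 1 h at 37° C, diluted 25× and added to serially diluted compounds. After 5 days at 37° C, viability read by CellTiter-Glo luminescence; EC50 from dose-response curves.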

The nature of data set [3]: Intestinal S9 Assay (dog GI S9). The data set is classed as in vitro ADME. As to conditions: dog, 1.0 mg/mL S9 protein, TRIS pH 7.4, read-out: Dog GI S9 T½. Put shortly:
as §1

Chain of bovine intestinal alkaline phosphatase (P19111 20-506): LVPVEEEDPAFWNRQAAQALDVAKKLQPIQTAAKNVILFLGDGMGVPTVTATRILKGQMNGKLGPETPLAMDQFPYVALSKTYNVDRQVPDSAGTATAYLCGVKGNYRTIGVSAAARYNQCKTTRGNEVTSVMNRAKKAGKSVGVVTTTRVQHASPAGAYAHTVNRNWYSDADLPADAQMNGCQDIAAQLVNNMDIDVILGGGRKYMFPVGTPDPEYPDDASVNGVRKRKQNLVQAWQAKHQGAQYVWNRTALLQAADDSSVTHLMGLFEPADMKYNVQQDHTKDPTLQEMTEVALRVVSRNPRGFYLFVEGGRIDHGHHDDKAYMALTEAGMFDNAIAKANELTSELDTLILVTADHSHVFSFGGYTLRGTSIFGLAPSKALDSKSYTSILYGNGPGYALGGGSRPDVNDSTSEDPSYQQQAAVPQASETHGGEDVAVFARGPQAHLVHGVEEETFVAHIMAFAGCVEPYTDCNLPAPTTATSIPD

`COC(=O)N[C@H](C(=O)N[C@@H](Cc1ccc(C#Cc2cnc(N3CC4CCC(C3)N4C3COC3)nc2)cc1)[C@H](CN(Cc1c(F)cc(-c2ccn(C(F)F)n2)cc1F)NC(=O)[C@@H](NC(=O)OC)C(C)(C)C(F)(F)F)OC(=O)CC(C)(C)c1c(CC(=O)N[C@@]2(C(=O)O)CCOC2)cc(C)cc1OP(=O)(O)O)C(C)(C)C(F)(F)F` [Example 29]: the half-life at 2 μM in data set [1] is 3.31 h; in “PBS Stability Assay”, 8.62 h; in data set [3], 0.822 h. In “Solubility in FaSSIF”, this compound had a solubility at 2 h of 4970 µg/mL (≈ 3110 µM). For the same compound, the “[Compound]” value in data set [2] is 1878.7 nM. For the same compound, the EC50 in the data set with HIV-1 IIIB strain is 213 nM.
Regarding `COC(=O)N[C@H](C(=O)N[C@@H](Cc1ccc(C#Cc2cnc(N3CC4CCC(C3)N4C3COC3)nc2)cc1)[C@H](CN(Cc1c(F)cc(-c2ccn(C(F)F)n2)cc1F)NC(=O)[C@@H](NC(=O)OC)C(C)(C)C(F)(F)F)OC(=O)CC(C)(C)c1c(CC(=O)N[C@]2(C(=O)O)CCOC2)cc(C)cc1OP(=O)(O)O)C(C)(C)C(F)(F)F` [Example 30], the half-life at 2 μM in data set [1] came to 4.11 h; in “PBS Stability Assay”, 8.56 h; in data set [3] it was 1.17 h. Also, the solubility at 2 h in “Solubility in FaSSIF” is 5370 µg/mL (≈ 3360 µM). For the same compound, the “[Compound]” value in data set [2] was found to be 1521.8 nM. Also, the EC50 in the data set on HIV-1 IIIB strain came out at 197 nM.
For the compound `COC(=O)N[C@H](C(=O)N[C@@H](Cc1ccc(C#Cc2cnc(N3CC4CCC(C3)N4C3COC3)nc2)cc1)[C@H](CN(Cc1c(F)cc(-c2ccn(C(F)F)n2)cc1F)NC(=O)[C@@H](NC(=O)OC)C(C)(C)C(F)(F)F)OC(=O)CC(C)(C)c1c(CC(=O)N[C@@H](CCS(=O)(=O)O)C(=O)O)cc(C)cc1OP(=O)(O)O)C(C)(C)C(F)(F)F` [Example 33], the half-life at 2 μM in data set [1] worked out at 3.72 h; in “PBS Stability Assay”, 5.71 h; in data set [3], 1.51 h. The same compound displayed a solubility at 2 h in “Solubility in FaSSIF” of 4240 µg/mL (≈ 2570 µM). In addition, in data set [2], the “[Compound]” value is given as 1487.1 nM. This compound displayed an EC50 with HIV-1 IIIB strain of 65.7 nM.
For the compound `COC(=O)N[C@H](C(=O)N[C@@H](Cc1ccc(C#Cc2cnc(N3CC4CCC(C3)N4C3COC3)nc2)cc1)[C@H](CN(Cc1c(F)cc(-c2ccn(C(F)F)n2)cc1F)NC(=O)[C@@H](NC(=O)OC)C(C)(C)C(F)(F)F)OC(=O)CC(C)(C)c1c(CC(=O)NC(CCP(=O)(O)O)C(=O)O)cc(C)cc1OP(=O)(O)O)C(C)(C)C(F)(F)F` (stereo partly drawn) [Example 35], the half-life at 2 μM was 3.21 h in data set [1], 3.27 h in “PBS Stability Assay” and 0.235 h in data set [3]. Moreover, the solubility at 2 h in “Solubility in FaSSIF” is 3560 µg/mL (≈ 2160 µM). Besides, the “[Compound]” value in data set [2] is 2145.2 nM. Also, the EC50 in the data set on HIV-1 IIIB strain was 65.7 nM.
Turning to `COC(=O)N[C@H](C(=O)N[C@@H](Cc1ccc(C#Cc2cnc(N3CC4CCC(C3)N4C3COC3)nc2)cc1)[C@H](CN(Cc1c(F)cc(-c2ccn(C(F)F)n2)cc1F)NC(=O)[C@@H](NC(=O)OC)C(C)(C)C(F)(F)F)OC(=O)CC(C)(C)c1c(CC(=O)NC23CC(C(=O)O)(C2)C3)cc(C)cc1OP(=O)(O)O)C(C)(C)C(F)(F)F` [Example 38], the half-life at 2 μM is 7.82 h in data set [1], 5.16 h in the data set “PBS Stability Assay” and 6.52 h in data set [3]. Moreover, the solubility at 2 h in “Solubility in FaSSIF” stood at 3500 µg/mL (≈ 2200 µM). The “[Compound]” value in data set [2] amounted to 1920.9 nM. In the data set with HIV-1 IIIB strain, this compound registered an EC50 of 305 nM.
With `COC(=O)N[C@H](C(=O)N[C@@H](Cc1ccc(C#Cc2cnc(N3CC4CCC(C3)N4C3COC3)nc2)cc1)[C@H](CN(Cc1c(F)cc(-c2ccn(C(F)F)n2)cc1F)NC(=O)[C@@H](NC(=O)OC)C(C)(C)C(F)(F)F)OC(=O)CC(C)(C)c1c(CC(=O)N[C@@H](Cc2ccc(C(=O)O)cc2)C(=O)O)cc(C)cc1OP(=O)(O)O)C(C)(C)C(F)(F)F` [Example 45], the half-life at 2 μM in data set [1] is 6.23 h; in “PBS Stability Assay” it was 4.74 h; in data set [3] it was 0.993 h. For the same compound, the solubility at 2 h in the data set “Solubility in FaSSIF” turned out to be 4300 µg/mL (≈ 2570 µM). In data set [2], the “[Compound]” value stood at 1787.4 nM. In the data set on HIV-1 IIIB strain, this compound came in with an EC50 of 209 nM.
